Test results from article PMC4749844, “Investigation of Calcium Channel Blockers as Antiprotozoal Agents and Their Interference in the Metabolism of Leishmania (L.) infantum” (Evidence-based Complementary and Alternative Medicine : eCAM, 2016).
Like-named read-outs stand apart in the source and are kept apart here.

How the values were obtained:
L. (L.) amazonensis = system: L. (L.) amazonensis; design: method as in PMID 9501844; conditions: read-out: IC50 against L. (L.) amazonensis; cited from earlier work
L. (L.) major = system: L. (L.) major; design: method as in PMID 9501844; conditions: read-out: IC50 against L. (L.) major; cited from earlier work
[1] = system: L. (L.) infantum promastigotes; experiment: Mitochondrial membrane potential, MitoTracker Red; format: cell-based, Leishmania (L.) infantum; conditions: for reduction of MitoTracker Red fluorescence levels relative to untreated parasites: 20 μM, 60 minutes, p < 0.05
Protocol: L. […] Then MitoTracker® Red CM-H2XROS (500 nM) was added and the incubation was continued for 40 minutes in the dark. […] Nitazoxanide (60 μg/mL) was used as a positive control and untreated promastigotes were used as negative control.

[2] = system: L. (L.) infantum promastigotes; experiment: Reactive oxygen species (ROS), H2DCF-DA; format: cell-based, Leishmania (L.) infantum; conditions: for regulation of ROS content compared to untreated parasites: amlodipine, fendiline 20 μM, 60 minutes
Protocol: L. (L.) infantum promastigotes (2 × 10^6 cells/well) were washed in HBSS medium and incubated with amlodipine or fendiline (20 μM) for 60 minutes at 24°C. To these cells 2′,7′-dichlorodihydrofluorescein diacetate (H2DCf-DA) was added (5 μM) and incubation was prolonged for 15 minutes. […] Nitazoxanide (60 μg/mL) was used as positive control and untreated promastigotes were used as negative control.

[3] = system: L. (L.) infantum promastigotes; conditions: not told
Protocol: L. (L.) infantum promastigotes were washed with PBS, deposited on a 96-well microplate (2 × 10^6 parasites/well) and incubated with SYTOX® Green (1 μM) for 15 minutes at 24°C [10]. Amlodipine and fendiline were added at 20 μM and the fluorescence was measured up to 60 minutes. The fluorescence intensity was determined using a fluorimetric microplate reader (FilterMax F5 Multi-Mode Microplate Reader-Molecular Devices) with excitation and emission wavelengths of 485 and 520 nm, respectively. Triton X-100 (0.1%) was used as positive control and untreated promastigotes were used as negative control.

T. cruzi trypomastigotes = experiment: Antitrypanosomal activity, MTT assay; format: cell-based, Trypanosoma cruzi; conditions: for IC50 ± SD, T. cruzi trypomastigotes / IC50: 24 hours at 37°C, highest concentration 100 μM; for IC50: read-out: IC50 ± SD, T. cruzi trypomastigotes; for Selectivity Index (SI), T. cruzi trypomastigotes: ratio between cytotoxicity to LLC-MK2 cells and antiparasitic activity
Protocol: (§1) Promastigotes of L. (L.) amazonensis (WHO/BR/00/LT0016), L. (V.) braziliensis (MHO/BR/75/M2903), and L. (L.) infantum (MHOM/BR/1972/LD) [synonymous with L. (L.) chagasi] were maintained in M199 medium supplemented with 10% calf serum and 0.25% hemin at 24°C. L. (L.) infantum amastigotes were obtained from the spleen of infected hamster by differential centrifugation at the 60–70th days after infection. Macrophages were collected from the peritoneal cavity of BALB/c mice by washing with RPMI-1640 medium supplemented with 10% fetal calf serum and were maintained at 37°C in a 5% CO2 humidified incubator. Trypanosoma cruzi trypomastigotes (Y strain) were maintained in LLC-MK2 (ATCC CCL 7) cells using RPMI-1640 medium supplemented with 2% calf serum at 37°C in a 5% CO2 humidified incubator.
To determine the IC50 against T. cruzi trypomastigotes, drugs were dissolved in DMSO and diluted with RPMI-1460 medium in 96-well microplates, with the highest concentration at 100 μM. Trypomastigotes obtained from LLC-MK2 cultures were counted in a Neubauer hemocytometer and seeded at 1 × 10^6 parasites/well in 96-well microplates. Test drugs were incubated for 24 hours at 37°C in a 5% CO2 humidified incubator and the viability of trypomastigotes was verified by the MTT assay as described above. Benznidazole was used as a standard drug.

[4] = system: Leishmania spp. promastigotes; experiment: Antileishmanial activity against promastigotes of all species tested, MTT assay; format: cell-based; conditions: range over the Leishmania species tested
Protocol: as §1
To determine the 50% inhibitory concentration (IC50) against Leishmania promastigotes, the drugs were dissolved in DMSO and diluted with M199 medium in 96-well microplates, with 100 μM as the highest concentration. Each drug was tested twice at eight concentrations prepared in twofold dilutions. Promastigotes were counted in a Neubauer hemocytometer and seeded at 1 × 10^6 parasites/well with a final volume of 150 μL. Controls with DMSO and without drugs were performed. Pentamidine was used as a standard drug. […]

[5] = system: L. (V.) braziliensis promastigotes; experiment: Antileishmanial activity against promastigotes, MTT assay; format: cell-based, Leishmania (V.) braziliensis; conditions: 24 hours at 24°C, highest concentration 100 μM; for IC50: Leishmania, read-out: IC50 ± SD, L. (V.) braziliensis promastigotes
Protocol: as §1
(§2) To determine the 50% inhibitory concentration (IC50) against Leishmania promastigotes, the drugs were dissolved in DMSO and diluted with M199 medium in 96-well microplates, with 100 μM as the highest concentration. Each drug was tested twice at eight concentrations prepared in twofold dilutions. Promastigotes were counted in a Neubauer hemocytometer and seeded at 1 × 10^6 parasites/well with a final volume of 150 μL. Controls with DMSO and without drugs were performed. Pentamidine was used as a standard drug. The plate was incubated for 24 hours at 24°C and the viability of promastigotes was verified by the MTT assay. Briefly, MTT (5 mg/mL) was dissolved in PBS, sterilized through 0.22 μm membrane and 20 μL/well was added, for 4 hours at 24°C. Promastigotes were incubated without compounds and used as a viability control. Formazan extraction was performed using 10% SDS for 18 hours (80 μL/well) at 24°C, and the optical density was determined in a Multiskan MS (UNISCIENCE) plate reader at 550 nm. The 100% viability was expressed based on the optical density of control promastigotes, after normalization. […] Plates were incubated at 37°C in a 5% CO2 humidified incubator for 24 hours. L. (L.) infantum amastigotes extracted from spleens and separated by differential centrifugation were added to macrophages at a ratio of 10 : 1 (amastigotes : macrophage). After 24 hours, extracellular parasites were removed by washing, fresh medium containing the drugs and controls was added, and the cells were incubated at 37°C for a period of 120 hours. Further medium changes with fresh drugs were carried out after 72 hours. At the end of the assay, the slides were stained with Giemsa and observed using light microscopy. Glucantime was used as a standard drug. The IC50 was determined by the number of infected macrophages in 400 cells.

[6] = Cytotoxicity in mammalian cells, MTT assay; format: cell-based; conditions: rhesus monkey, LLC-MK2 cells; 48 hours at 37°C; read-out: IC50 ± SD, LLC-MK2 cytotoxicity
Protocol: LLC-MK2 were seeded at 5 × 10^4 cells/well in 96-well microplates and incubated with drugs with 200 μM as the highest concentration, for 48 hours at 37°C in a 5% CO2 humidified incubator. The viability of the cells was determined by the MTT assay as described above. Control cells were incubated in the presence of DMSO and without drugs. Viability of 100% was expressed based on the optical density of control LLC-MK2 cells, after normalization. The Selectivity Index (SI) was given by the ratio between the cytotoxicity in LLC-MK2 cells and the antiparasitic activity.

[7] = system: L. (L.) amazonensis promastigotes; experiment: Antileishmanial activity against promastigotes, MTT assay; format: cell-based, Leishmania (L.) amazonensis; conditions: 24 hours at 24°C, highest concentration 100 μM; for IC50: Leishmania amazonensis, read-out: IC50 ± SD, L. (L.) amazonensis promastigotes
Protocol: as §1, §2

[8] = system: L. (L.) infantum intracellular amastigotes; experiment: Activity against intracellular amastigotes in peritoneal macrophages, Giemsa staining and light microscopy; format: cell-based, Leishmania (L.) infantum; conditions: for IC50 ± SD, L. (L.) infantum amastigotes / IC50: intracellular amastigotes in BALB/c peritoneal macrophages, 120 hours; for IC50: read-out: IC50 ± SD, L. (L.) infantum amastigotes; for Selectivity Index (SI), L. (L.) infantum amastigotes: ratio between cytotoxicity to LLC-MK2 cells and antiparasitic activity
Protocol: as §1, §2

[9] = system: L. (L.) infantum promastigotes; experiment: Antileishmanial activity against promastigotes, MTT assay; format: cell-based, Leishmania (L.) infantum; conditions: 24 hours at 24°C, highest concentration 100 μM; for IC50: Leishmania infantum, read-out: IC50 ± SD, L. (L.) infantum promastigotes
Protocol: as §1, §2

T. cruzi epimastigotes = system: T. cruzi epimastigotes; design: method as in PMID 9457486; conditions: in vitro; read-out: IC50 against T. cruzi epimastigotes; cited from earlier work
[10] = Leishmania infantum, Peritoneal macrophage, in Mus musculus, 120 h

Compound: Nc1ccncc1 [4-aminopyridine]
- IC50 (L. (L.) amazonensis): 46 µM
- IC50 (L. (L.) major): > 400 µM

Compound: CCOC(=O)C1=C(COCCN)NC(C)=C(C(=O)OC)C1c1ccccc1Cl (stereo not drawn) [Amlodipine, amlodipine]
- reduction of MitoTracker Red fluorescence levels relative to untreated parasites [1]: 7%
- ROS levels, fold higher compared to fendiline ([2]; 20 μM): ~3 fold
- upregulation of ROS, fold higher than nitazoxanide ([2]; amlodipine 20 μM, nitazoxanide 60 μg/mL): 1.99 fold
- regulation of ROS content compared to untreated parasites ([2]; nitazoxanide 60 μg/mL): intense and significant (p < 0.05) upregulation of ROS content
- plasma membrane permeability (SYTOX Green fluorescence) [3]: no interference on the plasma membrane permeability

Compound: Nc1cc(-c2ccncc2)c[nH]c1=O [Amrinone]
- IC50 ± SD, T. cruzi trypomastigotes (T. cruzi trypomastigotes): ne^b
- IC50 ± SD, T. cruzi trypomastigotes (T. cruzi trypomastigotes; listed as amrinone): inactive
- IC50 [4]: > 100 µM
- IC50 ± SD, L. (V.) braziliensis promastigotes [5]: ne^b
- IC50 at 48 h [6]: > 500 µM
- IC50 ± SD, L. (L.) amazonensis promastigotes [7]: ne^b
- IC50 ± SD, L. (L.) infantum amastigotes [8]: ne^b
- IC50 ± SD, L. (L.) infantum promastigotes [9]: ne^b

Compound: O=C(Cn1ccnc1[N+](=O)[O-])NCc1ccccc1 [Benznidazole]
- IC50 (T. cruzi trypomastigotes): 440 ± 39.1 µM
- IC50 (T. cruzi trypomastigotes; Trypanosoma cruzi, 24 h): 440 µM
- IC50 at 48 h [6]: > 500 µM

Compound: CC(NCCC(c1ccccc1)c1ccccc1)c1ccccc1 (stereo not drawn) [Fendiline, fendiline]
- IC50 (T. cruzi trypomastigotes; Trypanosoma cruzi, 24 h): 12.1 ± 2.97 µM
- Selectivity Index (SI), T. cruzi trypomastigotes (T. cruzi trypomastigotes): 4.11
- IC50 [5]: 9.15 ± 0.78 µM
- IC50 at 48 h [6]: 49.9 ± 8.16 µM
- IC50 [7]: 8.66 ± 1.27 µM
- reduction of MitoTracker Red fluorescence levels relative to untreated parasites [1]: 18%
- IC50 [8, 10]: 12 to 16 µM
- IC50 [8]: 12.2 ± 1.74 µM
- Selectivity Index (SI), L. (L.) infantum amastigotes [8]: 4.09
- regulation of ROS content compared to untreated parasites ([2]; nitazoxanide 60 μg/mL): intense and significant (p < 0.05) upregulation of ROS content
- IC50 [9]: 16.1 ± 4.2 µM
- plasma membrane permeability (SYTOX Green fluorescence) [3]: no interference on the plasma membrane permeability

Compound: Cc1cccc(C)c1NC(=O)CN1CCN(CCCC(c2ccc(F)cc2)c2ccc(F)cc2)CC1 [Lidoflazine, lidoflazine]
- IC50 (T. cruzi trypomastigotes; Trypanosoma cruzi, 24 h): 10.4 ± 1.87 µM
- Selectivity Index (SI), T. cruzi trypomastigotes (T. cruzi trypomastigotes): 10.25
- IC50 [5]: 14.5 ± 1.08 µM
- IC50 at 48 h [6]: 107 ± 58 µM
- IC50 [7]: 11.5 ± 1.49 µM
- IC50 [8, 10]: 12 to 16 µM
- IC50 [8]: 16.3 ± 4.45 µM
- Selectivity Index (SI), L. (L.) infantum amastigotes [8]: 6.54
- IC50 [9]: 17.7 ± 0.93 µM

Compound: COCC(=O)O[C@]1(CCN(C)CCCc2nc3ccccc3[nH]2)CCc2cc(F)ccc2[C@@H]1C(C)C [Mibefradil, mibefradil]
- IC50 (T. cruzi trypomastigotes; Trypanosoma cruzi, 24 h): 2.99 ± 0.43 µM
- Selectivity Index (SI), T. cruzi trypomastigotes (T. cruzi trypomastigotes): 4.01
- IC50 [5]: 2.75 ± 0.39 µM
- IC50 at 48 h [6]: 12 ± 1.03 µM
- IC50 [7]: 2.23 ± 0.42 µM
- IC50 ± SD, L. (L.) infantum amastigotes [8]: ne^b
- IC50 ± SD, L. (L.) infantum amastigotes ([8]; listed as mibefradil): lack of activity
- IC50 [9]: 3.6 ± 0.11 µM

Compound: CC(=O)Oc1ccccc1C(=O)Nc1ncc([N+](=O)[O-])s1 [Nitazoxanide]
- effect on mitochondrial membrane potential (fluorescence intensity) ([1]; nitazoxanide 60 μg/mL, positive control): strong reduction of fluorescence intensity
- regulation of ROS content compared to untreated parasites ([2]; nitazoxanide 60 μg/mL): significant upregulation of ROS

Compound: N=C(N)c1ccc(OCCCCCOc2ccc(C(=N)N)cc2)cc1 [Pentamidine]
- IC50 [4]: 0.69 to 1.14 µM
- IC50 [5]: 0.69 ± 0.04 µM
- IC50 at 48 h [6]: 23.5 ± 3.53 µM
- IC50 [7]: 1.14 ± 0.15 µM
- IC50 [9]: 1.06 ± 0.12 µM

Compound: COC(=O)C1=C(C)NC(C)=C(C(=O)OC(C)C)C1c1cccc2nonc12 (stereo not drawn) [isradipine]
- IC50 (T. cruzi epimastigotes): 20 µM

Compound: CCOC(=O)C1=C(C)NC(C)=C(C(=O)OCC)C1c1ccccc1/C=C/C(=O)OC(C)(C)C [lacidipine]
- IC50 (T. cruzi epimastigotes): 33 µM

Compound: Triton X-100
- plasma membrane permeability (SYTOX Green fluorescence) [3]: fully permeabilized parasites
